The values below are quoted from earlier work in patent publication US11975013B2, “Stable formulations comprising thiotepa” (SHORLA PHARMA LTD., priority 2020, dated 2024).

Molecules are shown by their SMILES.

The conditions of this data set: reconstituted in water, stored longer than five days; EP 0 419 890.

For `S=P(N1CC1)(N1CC1)N1CC1` [thiotepa, N,N′,N″-triethylenethiophosphoramide], the “potency on storage (in words)” value is “substantial loss of potency”.
